row,Structure (SMILES),melting point
1,"N#Cc1cccc(Cn2cnc3c(-c4ccco4)nc(N)nc32)c1 [Example 177, 9-(3-Cyanobenzyl)-6-(2-furyl)-9H-purine-2-amine]",302.5 to 304.8 °C
2,"Cn1cccc1-c1nc(N)nc2[nH]cnc12 [Example 133, 6-(1-Methyl-1H-pyrrol-2-yl)-1H-purine-2-amine]",> 240 °C (dec.)
3,"Nc1nc(-c2ccco2)c2ncn(Cc3ccccc3NS(=O)(=O)c3cccs3)c2n1 [Example 238, 6-(2-Furyl)-9-(2-(2-thienylsulphonylamino)benzyl)-9H-purine-2-amine]",265.6 to 266 °C
4,"CN(C)C(=O)c1ccc(Cn2cnc3c(-c4ccco4)nc(N)nc32)cc1 [Example 233, 4-(2-Amino-6-(2-furyl)-9H-purine-9-ylmethyl)-N,N-dimethylbenzamide]",223.1 to 226.9 °C
5,"Nc1nc(-c2ccco2)c2ncn(Cc3ccc(C(=O)NCc4ccccc4)cc3)c2n1 [Example 227, 4-(2-Amino-6-(2-furyl)-9H-purine-9-ylmethyl)-N-benzylbenzamide]",170 to 171.9 °C
6,"Nc1nc(-c2ccco2)c2ncn(CC(=O)Nc3ccncc3)c2n1 [Example 142, 2-Amino-6-(2-furyl)-N-(4-pyridyl)-9H-purine-9-acetamide]",281.3 to 283.2 °C
7,"Cc1ccccc1NC(=O)Cn1cnc2c(-c3ccco3)nc(N)nc21 [Example 140, 2-Amino-6-(2-furyl)-N-(2-methylphenyl)-9H-purine-9-acetamide]",299.2 to 299.3 °C
8,"Cc1nc(-c2nc(N)nc3[nH]cnc23)no1 [Example 90, 6-(5-Methyl-[1,2,4]-oxadiazol-3-yl)-1H-purine-2-amine]",> 200 °C (dec.)
9,"CN(Cc1ccccc1)C(=O)Cn1cnc2c(-c3ccco3)nc(N)nc21 [Example 145, 2-Amino-N-benzyl-6-(2-furyl)-N-methyl-9H-purine-9-acetamide]",224 to 224.1 °C
10,C[Si](C)(C)CCOCn1cnc2c(-c3ccco3)nc(Cl)nc21,105.8 to 106.2 °C
11,"Nc1nc(-c2ccn[nH]2)c2ncn(Cc3ccccc3F)c2n1 [Example 262, 9-(2-Fluorobenzyl)-6-(1H-pyrazol-3-yl)-9H-purine-2-amine]",257 to 259 °C
12,"O=C(Nc1ccccc1)Nc1nc(-c2ccco2)c2nc[nH]c2n1 [Example 23, N-(6-(2-Furyl)-1H-purine-2-yl)-N'-phenylurea]",> 330 °C (dec.)
13,"Cc1ccc(-c2nc(N)nc3[nH]cnc23)nc1 [Example 241, 6-(5-Methyl-2-pyridinyl)-1H-purine-2-amine]",246.2 to 248 °C
14,"Nc1nc(-c2ccco2)c2ncn(CC(=O)Nc3ccccn3)c2n1 [Example 122, 2-Amino-6-(2-furyl)-N-(2-pyridyl)-9H-purine-9-acetamide]",242.5 to 243.6 °C
15,"Nc1nc(-c2ccco2)c2ncn(Cc3cccc(C(=O)NCc4ccccc4)c3)c2n1 [Example 226, 3-(2-Amino-6-(2-furyl)-9H-purine-9-ylmethyl)-N-benzylbenzamide]",243.2 to 243.8 °C
16,"Nc1nc(-c2ccco2)c2ncn(Cc3cccc(F)c3)c2n1 [Example 203, 9-(3-Fluorobenzyl)-6-(2-furyl)-9H-purine-2-amine]",218.2 to 218.5 °C
17,"CS(=O)(=O)Nc1ccccc1Cn1cnc2c(-c3ccco3)nc(N)nc21 [Example 210, 6-(2-Furyl)-9-(2-methanesulphonylaminobenzyl)-9H-purine-2-amine]",254.7 to 255.3 °C
18,"CC(C)COC(=O)n1cnc2c(-c3ccco3)nc(N)nc21 [Example 20, 2-Methylpropyl 2-amino-6-(2-furyl)-9H-purine-9-carboxylate]",> 300 °C (dec.)
19,"Cc1ccsc1-c1nc(N)nc2[nH]cnc12 [Example 150, 6-(3-Methyl-2-thienyl)-1H-purine-2-amine]",247 to 248 °C
20,"CSc1nc(-c2ccco2)c2ncn(C(=O)OC(C)(C)C)c2n1 [Example 12, tert-Butyl 6-(2-furyl)-2-methylthio-9H-purine-9carboxylate]",112 to 113 °C
